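The compound was tested at five concentrations on cells cultured in 96-well plates, with a 48-hour exposure period. Definition used: TGI = concentration required for complete inhibition of growth.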
How the values were obtained:
Assay in all cases: NCI-60 cell line screen, 48 h
EKVX NSCLC = system: EKVX NSCLC
HOP-92 NSCLC = system: HOP-92 NSCLC
HCT-116 colon = system: HCT-116 colon
DU-145 prostate = system: DU-145 prostate
M14 melanoma = system: M14 melanoma
HOP-62 NSCLC = system: HOP-62 NSCLC
MCF7 breast = system: MCF7 breast
RPMI-8226 leukemia = system: RPMI-8226 leukemia
BT-549 breast = system: BT-549 breast
MDA-MB-435 = system: MDA-MB-435
SK-MEL-2 melanoma = system: SK-MEL-2 melanoma
A549 NSCLC = system: A549 NSCLC
SF-268 CNS = system: SF-268 CNS
SK-OV-3 ovarian = system: SK-OV-3 ovarian
CAKI-1 renal = system: CAKI-1 renal
MALME-3M melanoma = system: MALME-3M melanoma
NCI-H23 lung = system: NCI-H23 lung
SNB-75 CNS = system: SNB-75 CNS
NCI-H226 lung = system: NCI-H226 lung
SR leukemia = system: SR leukemia
COLO 205 colon = system: COLO 205 colon
SK-MEL-28 melanoma = system: SK-MEL-28 melanoma
MOLT-4 leukemia = system: MOLT-4 leukemia
K-562 leukemia = system: K-562 leukemia
MDA-MB-231 breast = system: MDA-MB-231 breast
LOX IMVI melanoma = system: LOX IMVI melanoma
ACHN renal = system: ACHN renal
SW-620 colon = system: SW-620 colon
NCI-H460 lung = system: NCI-H460 lung
SK-MEL-5 melanoma = system: SK-MEL-5 melanoma
IGROV1 ovarian = system: IGROV1 ovarian
TK-10 renal = system: TK-10 renal
786-0 renal = system: 786-0 renal
HL-60(TB) leukemia = system: HL-60(TB) leukemia
PC-3 prostate = system: PC-3 prostate
KM12 colon = system: KM12 colon
RXF 393 renal = system: RXF 393 renal
SF-295 CNS = system: SF-295 CNS
U251 CNS = system: U251 CNS
MDA-N = system: MDA-N
SNB-19 CNS = system: SNB-19 CNS
HT29 colon = system: HT29 colon
SN12C renal = system: SN12C renal
OVCAR-5 ovarian = system: OVCAR-5 ovarian
UACC-257 melanoma = system: UACC-257 melanoma
T-47D breast = system: T-47D breast
UO-31 renal = system: UO-31 renal
HS 578T breast = system: HS 578T breast
UACC-62 melanoma = system: UACC-62 melanoma
HCT-15 colon = system: HCT-15 colon
OVCAR-4 ovarian = system: OVCAR-4 ovarian
CCRF-CEM leukemia = system: CCRF-CEM leukemia
NCI-H522 lung = system: NCI-H522 lung
OVCAR-3 ovarian = system: OVCAR-3 ovarian
NCI/ADR-RES ovarian = system: NCI/ADR-RES ovarian
HCC-2998 colon = system: HCC-2998 colon
OVCAR-8 ovarian = system: OVCAR-8 ovarian
SF-539 CNS = system: SF-539 CNS

With O=C(NC(=S)Nc1ccc2c(c1)Sc1ccccc1O2)c1ccccc1 the TGI (EKVX NSCLC) was greater than 100 µM, the TGI (HOP-92 NSCLC) was 69 µM and the TGI (HCT-116 colon) was greater than 100 µM. It also gave a TGI (DU-145 prostate) greater than 100 µM, a TGI (M14 melanoma) greater than 100 µM and a TGI (HOP-62 NSCLC) greater than 100 µM. The TGI (MCF7 breast) was greater than 100 µM, the TGI (RPMI-8226 leukemia) was greater than 100 µM and the TGI (BT-549 breast) was greater than 100 µM. It also gave a TGI (MDA-MB-435) greater than 100 µM, a TGI (SK-MEL-2 melanoma) of 48.8 µM and a TGI (A549 NSCLC) greater than 100 µM. The TGI (SF-268 CNS) was greater than 100 µM, the TGI (SK-OV-3 ovarian) was greater than 100 µM and the TGI (CAKI-1 renal) was greater than 100 µM. The TGI (MALME-3M melanoma) was 93.2 µM, the TGI (NCI-H23 lung) was greater than 100 µM and the TGI (SNB-75 CNS) was 40.3 µM. The TGI (NCI-H226 lung) was greater than 100 µM, the TGI (SR leukemia) was 16.1 µM and the TGI (COLO 205 colon) was greater than 100 µM. The TGI (SK-MEL-28 melanoma) was greater than 100 µM, the TGI (MOLT-4 leukemia) was greater than 100 µM and the TGI (K-562 leukemia) was greater than 100 µM. For the same molecule, the TGI (MDA-MB-231 breast) was 57.8 µM, the TGI (LOX IMVI melanoma) was greater than 100 µM and the TGI (ACHN renal) was greater than 100 µM. For the same molecule, the TGI (SW-620 colon) was greater than 100 µM, the TGI (NCI-H460 lung) was greater than 100 µM and the TGI (SK-MEL-5 melanoma) was greater than 100 µM. The TGI (IGROV1 ovarian) was greater than 100 µM, the TGI (TK-10 renal) was 54.3 µM and the TGI (786-0 renal) was 48.1 µM. It also gave a TGI (HL-60(TB) leukemia) greater than 100 µM, a TGI (PC-3 prostate) of 28.5 µM and a TGI (KM12 colon) greater than 100 µM. For the same molecule, the TGI (RXF 393 renal) was 64.5 µM, the TGI (SF-295 CNS) was 79.4 µM and the TGI (U251 CNS) was 49.6 µM. It also gave a TGI (MDA-N) greater than 100 µM, a TGI (SNB-19 CNS) greater than 100 µM and a TGI (HT29 colon) greater than 100 µM. For the same molecule, the TGI (SN12C renal) was greater than 100 µM, the TGI (OVCAR-5 ovarian) was greater than 100 µM and the TGI (UACC-257 melanoma) was greater than 100 µM. For the same molecule, the TGI (T-47D breast) was greater than 100 µM, the TGI (UO-31 renal) was greater than 100 µM and the TGI (HS 578T breast) was greater than 100 µM. It also gave a TGI (UACC-62 melanoma) greater than 100 µM, a TGI (HCT-15 colon) greater than 100 µM and a TGI (OVCAR-4 ovarian) of 92.3 µM. The TGI (CCRF-CEM leukemia) was 95.9 µM, the TGI (NCI-H522 lung) was greater than 100 µM and the TGI (OVCAR-3 ovarian) was greater than 100 µM. The TGI (NCI/ADR-RES ovarian) was greater than 100 µM, the TGI (HCC-2998 colon) was 49.2 µM and the TGI (OVCAR-8 ovarian) was greater than 100 µM. It also gave a TGI (SF-539 CNS) of 64.6 µM.
